Laboratory results taken from patent US9249466B2, “Methods and compositions for treating cancer” (Agency for Science, Technology and Research, priority 2010, dated 2016).
“Also recorded” adds a separate entry of the source.

Tests used:
PPP2R2B = experiment: RT-PCR analysis of PPP2R2B expression; format: cell-based, human; settings: DLD1 cells, 5 μM for 3 days
Procedure: For RT-PCR, total RNA was reverse-transcribed using oligo(dT)12-18 primer (SEQ ID NO: 6)with Superscript II reverse transcriptase (Invitrogen). 100 ng of cDNA was used for PCR. The primers PPP2R2B F: 5′ […] 3′ (SEQ ID NO: 7) and PPP2R2B R: 5′ (SEQ ID NO: 8) […] 3′ were used to amplify the PPP2R2B cDNA.

p-Myc(T58/S62) = experiment: Immunoblot analysis of Myc phosphorylation; format: cell-based, human; settings: DLD1 cells; for effect on rapamycin-induced Myc phosphorylation: BX912 2.5 μM or PIK90 5 μM with rapamycin 10 nM
p-AKT (S473) = experiment: Immunoblot analysis of AKT S473 phosphorylation; format: cell-based, human; settings: DLD1 cells; for effect on AKT S473 phosphorylation: BX912 2.5 μM or PIK90 5 μM with rapamycin 10 nM, 48 hr
SW480 and DLD1 cells = experiment: G2/M phase arrest by PI staining and FACS in SW480 and DLD1 cells; format: cell-based, human; settings: BX912 2.5 μM or PIK90 with rapamycin 10 nM, 48 h
Procedure: (§1) In brief, 1000 cells were seeded in 96-well plate and the cell number was measured following manufacturer's instruction. To detect the senescence in DLD1-tet on cells, cells were treated with Dox for 48 hr and SA-β-Gal staining was performed according to the protocol of Senescence Detection kit (BioVision). Cell cycle analysis was done by DNA content quantification.
The cells were fixed with 70% ethanol and stained with propidium iodide (50 μg/ml) staining. The stained cells were analyzed by FACScalibur (BD Bioscience) and quantified by using CellQuest software (BD bioscience).

DLD1 and SW480 cells [1] = experiment: Cell viability of DLD1 and SW480 cells under drug combinations; format: cell-based, human; settings: BX912 2.5 μM plus rapamycin 10 nM, 5-day cell viability assay
Procedure: Cell viability was measured using CellTiter-Glo™ Luminescent Cell Viability Assay (Promega).
as §1

DLD1 and SW480 cells [2] = experiment: Monolayer dense foci / colony formation of DLD1 and SW480 cells; format: cell-based, human; settings: BX912 2.5 μM plus rapamycin 10 nM, 2-week colony formation assay
Procedure: For DLD1 and HCT116 inducible cells foci formation assay, 1×10^4 cells were seeded on 6-well plate with or without treatment with Dox or rapamcycin. […]

SW480 cells = experiment: Morphologies of SW480 cells under treatment; format: cell-based, human
[3] = cited from earlier work
[4] = test system: behavioral tasks and aggregate formation; settings: mouse model of HD; cited from earlier work
human cancers = settings: also with intermittent dosing schedule; cited from earlier work
[5] = test system: HEK-TERV cells transformed with PDK1, Myc, shPTEN or PI3K E545K; experiment: Cell viability / proliferation of transformed HEK-TERV cells with PLK1 inhibitors; format: cell-based, human

Nc1ncn([C@H]2C[C@H](O)[C@@H](CO)O2)c(=O)n1 [5-aza-dC]
PPP2R2B expression (PPP2R2B): re-expression of PPP2R2B

Cn1c(=O)n(-c2ccc(C(C)(C)C#N)cc2)c2c3cc(-c4cnc5ccccc5c4)ccc3ncc21 [BEZ235]
Myc phosphorylation (p-Myc(T58/S62); BEZ 235 100 nM, 48 hr): induced Myc phosphorylation

O=C(Nc1cccc(Nc2ncc(Br)c(NCCc3cnc[nH]3)n2)c1)N1CCCC1 [BX912]
effect on rapamycin-induced Myc phosphorylation (p-Myc(T58/S62); 48 hr): abolished rapamycin-induced Myc phosphorylation
effect on AKT S473 phosphorylation (p-AKT (S473)): had no much effect on AKT S473
G2/M arrest in combination with rapamycin (SW480 and DLD1 cells): synergized with rapamycin to induce strong G2/M arrest
loss of cell viability in combination with rapamycin (DLD1 and SW480 cells [1]): synergistic loss of cell viability
loss of cell viability in combination with rapamycin (colony formation) (DLD1 and SW480 cells [2]): synergistic loss of cell viability
morphological change (SW480 cells): induced a morphological change similar to that seen upon PPP2R2B re-expression

CO[C@H]1C[C@@H]2CC[C@@H](C)[C@@](O)(O2)C(=O)C(=O)N2CCCC[C@H]2C(=O)O[C@H]([C@H](C)C[C@@H]2CC[C@@H](OC(=O)C(C)(CO)CO)[C@H](OC)C2)CC(=O)[C@H](C)/C=C(\C)[C@@H](O)[C@@H](OC)C(=O)[C@H](C)C[C@H](C)/C=C/C=C/C=C/1C [CCI 779, rapamycin 42-[2,2-bis(hydroxymethyl)propionate]]
water solubility [3]: water soluble
behavioral performance and aggregate formation [4]: improved performance on 4 different behavioral tasks and decreased aggregate formation
growth of cancers (human cancers): inhibit the growth of a diverse range of cancer types

COc1cc2ncn(-c3cc(OCc4ccccc4C(F)(F)F)c(C(N)=O)s3)c2cc1OC [GW843682X]
selectivity of inhibition of proliferation / cell viability (dose-response) ([5]; HEK-PDK1 and HEK-Myc vs HEK-PMN and HEK-shPTEN cells, 4 days): more selectively decrease the cell viability of PDK1 or Myc-transformed cells; also recorded: more selectively inhibit the proliferation of PDK1 or Myc-transformed HEK cells
growth inhibition in kinase inhibitor screen ([5]; HEK-PDK1 cells compared to HEK-vector control cells (PMN)): selective growth inhibition effect

COc1ccc2c(c1OC)N=C(NC(=O)c1cccnc1)N1CCN=C21 [PIK90]
effect on rapamycin-induced Myc phosphorylation (p-Myc(T58/S62); 48 hr): unable to inhibit rapamycin-induced Myc phosphorylation
effect on AKT S473 phosphorylation (p-AKT (S473)): effectively abolished the AKT S473 phosphorylation
G2/M arrest in combination with rapamycin (SW480 and DLD1 cells): not
morphological change (SW480 cells): not

Oc1cccc(-c2nc(N3CCOCC3)c3oc4ncccc4c3n2)c1 [PIK-103]
Myc phosphorylation (p-Myc(T58/S62); 0.5 μM): enhanced Myc phosphorylation
AKT S473 phosphorylation (p-AKT (S473); 0.5 μM): reduced AKT 5473 phosphorylation
